Test [1] deals with T17 cells (TrkA stably transfected SN56 cells). The test is described as follows: Cell-based apoptotic assay: protection of TrkA-expressing T17 cells from staurosporine-initiated apoptosis, MR(DEVD)2 caspase-3 dye. Also noted: species or system murine. The following applies: 0.5 μM pre-incubation, then 1 μM STS for 9 h; compared with NGF. An excerpt:
In order to identify small molecules that mimic NGF and activate TrkA, we developed a cell-based apoptotic assay using a cell permeable fluorescent dye MR([…])2, which turns red upon caspase-3 cleavage in apoptotic cells. We utilized a murine cell line T17, which was derived from basal forebrain SN56 cells. T17 cells are TrkA stably transfected SN56 cells. The candidates selectively protecting T17 but not SN56 cells from the first round screen can then be subjected to neurite outgrowth assay for the secondary screen. The positive compounds can be analyzed for TrkA tyrosine phosphorylation, Akt and MAP kinases signaling cascade activation.
T17 cells can be cultured in 96-well plates and preincubated with 10 μM compounds for 30 min, followed by 1 μM staurosporine (STS) treatment for 9 h. MR(DEVD)2 can be introduced to the cells 1 h before examination under fluorescent microscope. The apoptotic cells are red, while live cells have no signal. […] Using the caspase-3-activated fluorescent dye as a visual assay, one can screen the gambogic amine compounds.
To compare the apoptosis inhibitory activity of various compounds, one can pre-incubate gambogic amines derivatives (0.5 μM) with T17 and SN56 cells, followed by 1 μM STS for 9 h. Quantitative analysis of the apoptosis inhibitory activities can determine whether the compounds protect SN56 cells from apoptosis.
T17 cells can be seeded in a 96-well plate at 10,000 cells/well in 100 μl complete medium. Cells can be incubated overnight, followed by 30 min pretreatment with 10 μM compounds in DMSO (10 mM stock concentration from The Spectrum Collection library). The cells can then be treated with 1 μM Staurosporine for 9 h. One h before the termination of the experiment, 10 μM MR(DEVD)2, a cell permeable caspase-3-activated fluorescent dye can be introduced. Cells can be fixed with 4% paraformaldehyde for 15 min. Cells can then be washed with PBS and incubated with 1 μg/ml of Hoechst 33342 for 10 min. Cover slides can then be washed with PBS, mounted, and examined using a fluorescence microscope.

Test [2] has as its system hippocampal neurons. The test is described as follows: OGD (Oxygen and Glucose Deprivation) neuronal cell death in hippocampal neurons. Type of test: cell-based. The conditions noted are these: in vitro. The protocol:
NGF overexpression decreases infarct volume and neuronal apoptosis in transgenic mice or intraventricular injected mice (Guegan et al., 1998; Luk et al., 2004). NGF also potently protects PC12 cells from apoptosis in an OGD (Oxygen-glucose-deprivation) model (Tabakman et al., 2005). To explore whether test compounds might exert any protective effect on hippocampal neurons in OGD, the primary preparations can be pre-treated with NGF or test compounds 30 min before OGD stimulation. […] Titration assays can show whether the compounds protect neurons in a dose-dependent manner. Therefore, the assay can identify compounds which selectively protect TrkA expression cells and primary neurons from apoptosis.
NGF overexpression decreases infarct volume and neuronal apoptosis in transgenic mice or intraventricular injected mice (Guegan et al., 1998; Luk et al., 2004). NGF also potently protects PC12 cells from apoptosis in an OGD (Oxygen-glucose-deprivation) model (Tabakman et al., 2005). To explore whether gambogic amines exert any protective effect on hippocampal neurons in OGD, one can pre-treat the primary preparations with NGF or various compounds 30 min before OGD stimulation. […] Titration assays can reveal whether or not the compounds protect neurons in a dose-dependent manner. […]

Test [3] concerns infarct volume. The test is described as follows: Transient middle cerebral artery occlusion (MCAO) stroke model, infarct volume. The conditions noted are these: rat, in vivo. Also noted: species or system rats. As for the experimental part: To further determine the neuroprotective potential in vivo, test compounds can be tested in a transient middle cerebral artery occlusion (MCAO) stroke model in adult male rats. After 2 h MCAO followed by reperfusion, the animals receive vehicle or test compounds (2 mg/kg) 5 min prior to the onset of reperfusion.
A representative brain slice stained with TTC 24 h after MCAO in vehicle-treated and compound-treated rats can be subjected to area and volume measurements from TTC sections to indicate whether treatments with the compound substantially reduces infarct volumes in this transient ischemic model of stroke. […]
To further determine the neuroprotective potential in vivo, the gambogic amine can be tested in a transient middle cerebral artery occlusion (MCAO) stroke model in adult male rats. […] LDF (laser-Doppler flowmetry) can be measured over the ipsilateral parietal cortex. The effects of the gambogic amine on relative CBF (cerebral blood flow) can be evaluated. After filament withdrawal (120 min), relative CBF can also be measured in the vehicle-treated group and gambogic amine-treated groups, and compared with preischemic levels.
Rats can be used in a study of focal ischemia. […] Using a SurgiVet (model V3304; Waukesha, Wis., USA) pulse oximeter, blood SpO2 can be monitored and maintained at levels 90%. […]

Molecules are shown by their SMILES.

As for `CC(C)=CCC[C@]1(C)C=Cc2c(O)c3c(c(CC=C(C)C)c2O1)O[C@]12C(=C[C@@H]4CC1C(C)(C)O[C@@]2(C/C=C(/C)C(N)=O)C4=O)C3=O` [gambogic amide], the “apoptosis inhibitory activity in T17 cells” value in test [1] was “strongly suppress apoptosis in T17 cells with protective activities even stronger than NGF”. For the same compound, the “protection of hippocampal neurons from OGD neuronal cell death” value in test [2] was “potent neurotrophic effects”. Moreover, in test [3], the “decrease of stroke-induced infarct volume” value is reported as “effectively decrease”.
